Test results taken from patent US20260041098A1, “POLYMERIC BATCH TO PREPARE AN ANTIMICROBIAL MATERIAL AND AIR FILTER” (IMPORTADORA Y EXPORTADORA JCN LIMITADA, priority 2021, published 2026).

Tests used:
Format in all cases: cell-based
S. aureus ATCC 6538 [1] = experiment: Copper oxychloride dilution test; details: 5,000 ppm
Protocol: (§1) Additionally, a dilution test was performed using a 250,000 ppm ([…]) stock solution of copper oxychloride. A gradient was prepared using aliquots from 2,500 ppm to 100,000 ppm. A 3×10^5 CFU/mL bacterial culture of S. aureus ATCC 6538 and a 1.25×10^6 CFU/mL culture of E. coli ATCC 25922 were added to each solution.

E. coli ATCC 25922 [2] = experiment: Copper oxychloride dilution test
Protocol: as §1

S. aureus ATCC 6538 [3] = experiment: Copper oxychloride agar diffusion test; details: 4,250-125,000 ppm tested, 37° C., 24 hours
Protocol: (§2) An agar diffusion test was conducted for E. coli ATCC 25922 and S. aureus ATCC 6538 cultures. Copper oxychloride was added at different concentrations (4,250 ppm, 8,500 ppm, 17,000 ppm, 32,000 ppm, 60,000 ppm, 125,000 ppm).

E. coli ATCC 25922 [4] = experiment: Copper oxychloride agar diffusion test; details: 4,250-125,000 ppm tested, 37° C., 24 hours
Protocol: as §2

[5] = repeated test, 5,000 ppm (bacterium not named)

For `[Cl-].[Cu+2].[Cu+2].[OH-].[OH-].[OH-]` [copper oxychloride], the “% Efficiency” value (S. aureus ATCC 6538 [1]) was 99.9%, the bacterial growth (S. aureus ATCC 6538 [1]) was “no growth” and the “Final Count” value (S. aureus ATCC 6538 [1]; initial count 3 × 10^5 CFU/mL) was 2 × 10^2 CFU/mL. For the same molecule, the “% Efficiency” value (E. coli ATCC 25922 [2]; 2,500 ppm) was 96.0%, the bacterial growth (E. coli ATCC 25922 [2]; 2,500 ppm) was “still grew” and the “Final Count” value (E. coli ATCC 25922 [2]; 2,500 ppm, initial count 1.25 × 10^6 CFU/mL) was 5 × 10^4 CFU/mL. The bacteria eliminated (E. coli ATCC 25922 [2]; [5]) was 99.9%, the bacterial growth (E. coli ATCC 25922 [2]; [5]) was “no bacterial growth was observed” and the “concentration at which zones of growth inhibition were observed” value (S. aureus ATCC 6538 [3]) was 17,000 ppm. For the same molecule, the “concentration at which zones of growth inhibition were observed” value (E. coli ATCC 25922 [4]) was 17,000 ppm.
